Read-outs that look alike come from different tables or passages of the source.
Tests used:
[1] = biological target: T1, Aβ42 fibrils (Homo sapiens, UniProt P05067); experiment: Fluorescence saturation binding assay with Aβ42 fibrils; settings: read-out: Kd, Fibrils
T1 construct: commercial Aβ42 monomer powder (from GL biochem); purchased GL biochem
Procedure: Preparation of the Aβ42 Fibrils and Aβ42 Oligomers. Aβ42 fibrils: 1 mg of commercial Aβ42 monomer powder (from GL biochem) was dissolved in 1 mL 1,1,1,3,3,3-hexafluoro-2-propanol (HFIP) at room temperature and incubated for 1 h. The resulting solution was divided equally into two Eppendorf tubes. The solution in each Eppendorf tube containing 0.5 mg Aβ42 monomer was then evaporated overnight and dried by vacuum centrifuge to generate monomeric films. […] Aβ42 fibrils solution was prepared by dissolving the 0.5 mg monomeric films in 1.1 mL PBS buffer (with final DMSO concentration less than 1%) and stirring at 37° C. for 3 days.
(§1) In Vitro Saturation Binding Studies with Aβ42 Fibrils and Aβ42 Oligomers. To a solution of increasing concentrations of compounds, a fixed concentration of the generated aggregated Aβ42 fibrils or Aβ42 oligomers solutions (5 to 15 NM) was added to yield a total volume of 100 μL. Nonspecific binding was determined […]. The mixture was incubated for 15 min at room temperature. All fluorescence data were obtained on a SpectraMax M2e plate reader (Molecular Devices). The fluorescent intensity was measured at the corresponding emission wavelength of each compound, and the Kd binding curves were generated by GraphPad Prism 8.0 with one site-specific binding model. Equation: Y=Bmax*X/(Kd+X).

[2] = biological target: T2, Aβ42 oligomers (Homo sapiens, UniProt P05067); experiment: Fluorescence saturation binding assay with Aβ42 oligomers; settings: for Kd: read-out: Kd, Oligomers; for binding affinity to oligomers compared with fibrils (Kd comparison): amphiphilic ZY compounds
T2 construct: commercial Aβ42 monomer powder (from GL biochem); purchased GL biochem
T2 sequence (P05067 672-713 limits assumed): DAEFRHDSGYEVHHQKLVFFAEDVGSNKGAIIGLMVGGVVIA
Procedure: Aβ42 oligomers: The 0.5 mg monomeric films were dissolved in 1.1 mL PBS buffer (with final DMSO concentration less than 1%) and incubated at 4° C. overnight. The resulting solution was then centrifuged at 3000 rpm for 15 mins to remove the insoluble aggregates. The clear supernatant was then used for the following experiments. Aβ42 oligomers concentration was checked by measuring the absorbance of the supernatant at 280 nm.
as §1

[3] = system: Cu^2+-Aβ42-induced toxicity in Neuro2A cells; experiment: Cu2+-Aβ42-induced toxicity, Alamar blue cell viability; type: cell-based, mouse; settings: [Aβ42]=40 μM, [Cu^2+]=40 μM, compound 10 μM (ZY-12-OMe 5 μM)
Procedure: FIG. 6. Cell viability results upon incubation of Neuro2A cells with monomeric Aβ42 in the presence or absence of metal ions and amphiphilic compounds. Concentrations: [Aβ42]=40 μM, [Cu^2+]=40 μM, [ZY-12-MT]=[ZY-15-OMe]=[ZY-15-MT]=[ZY-17-MT]=[ZY-5-OMe]=[ZY-5-MT]=[ZY-5-DT]=10 μM, [ZY-12-OMe]=5 μM. The error bars represent the standard deviation from five independent experiments, and the statistical analysis was evaluated according to one-way ANOVA (*p<0.05).
For the Cu^2+-Ap-induced toxicity studies, cells treated were monomeric Aβ42, Cu^2+, monomeric Aβ42+Cu^2+, and monomeric Aβ42+Cu^2++ compounds, respectively. After 40 h incubation, Alamar Blue solution (10 μL) was added, and the cells were incubated for another 90 min at 37° C. The fluorescence intensity of each well was measured at 590 nm (excitation wavelength=560 nm).

[4] = Log D by octanol-PBS partition; type: physicochemical; settings: DCM compounds
Procedure: Log D measurements. The Log D value was measured following a published procedure using slight modifications. In general, compounds in 0.5 mL octanol was subjected to partition with 0.5 mL octanol-saturated PBS. The whole mixture was stirred vigorously for 5 min, and centrifuged at 2,000 rpm for 5 min. The top octanol layer was separated for later fluorescence measurement. The remaining PBS layer was partitioned with 0.5 mL PBS-saturated octanol, and the second top octanol layer was then separated after vigorous stirring and centrifuging at 2,000 rpm for another 5 min. The two octanol layers' fluorescence spectra were recorded. The log D value was calculated by the fluorescence intensity ratio at the compounds' emission wavelength for the above two octanol extractions.

[5] = biological target: Aβ oligomers; settings: cited from earlier work
[6] = system: mouse neuroblastoma N2a cells; experiment: Alamar blue cytotoxicity in N2a cells; type: cell-based; settings: for relative cytotoxicity: comparison among compounds
Procedure: Cytotoxicity Studies. Alamar Blue assay was chosen for the cytotoxicity studies. Mouse neuroblastoma Neuro2A (N2A) cells were grown with DMEM/10% FBS in a petri dish at 37° C. in a humidified atmosphere with 5% CO2. Then N2A cells were seeded in a 96-well plate (1.0×10^4/well). After 24 h incubation, cell media was changed to DMEM/N-2, and N2A cells were incubated for another 1 h. Then the cells were treated with different concentrations of compounds for 40 h, Alamar Blue solution (10 μL) was added, and the cells were incubated for another 90 min at 37° C. The fluorescence intensity of each well was measured at 590 nm (excitation wavelength=560 nm).

T1 sequence (P05067 672-713 limits assumed): as above

Compound	Kd ([1]; Table 1, amphiphilic compounds) [µM]	Kd ([2]; Table 1, amphiphilic compounds) [µM]	binding affinity to oligomers compared with fibrils (Kd comparison) [2]	further results
CN1CCN(C)CCN(Cc2cc(/C=C/c3ccc(-c4ccc(C=O)cc4)s3)cc(CN3CCN(C)CCN(C)CC3)c2O)CC1 [ZY-15-DT, (E)-4-(5-(3,5-bis((4,7-dimethyl-1,4,7-triazonan-1-yl)methyl)-4-hydroxystyryl)thiophen-2-yl)benzaldehyde]	1.27 ± 0.1	4.55 ± 0.32	–	–
COc1cc(/C=C/c2ccc(-c3ccc(N(C)C)cc3)s2)cc(CN2CCN(C)CCN(C)CC2)c1O [ZY-5-OMe, (E)-2-((4,7-dimethyl-1,4,7-triazonan-1-yl)methyl)-4-(2-(5-(4-(dimethylamino)phenyl)thiophen-2-yl)vinyl)-6-methoxyphenol]	0.68 ± 0.1	1.04 ± 0.15	–	effect on cell viability under Cu^2+-Aβ42 toxicity [3]: significantly increase cell viability
CN1CCN(C)CCN(Cc2cc(/C=C/C3=CC(=C(C#N)C#N)c4ccccc4O3)cc(CN3CCN(C)CCN(C)CC3)c2O)CC1 [DCM-OH-1-DT, (E)-2-(2-(3,5-bis((4,7-dimethyl-1,4,7-triazonan-1-yl)methyl)-4-hydroxystyryl)-4H-chromen-4-ylidene)malononitrile]	–	–	–	Kd ([1]; Table 3, DCM compounds): 1.85 ± 0.19 µM; Kd ([2]; Table 3, DCM compounds): 2.88 ± 0.54 µM; logD [4]: 1.51 ± 0.018
CN1CCN(C)CCN(Cc2cc(/C=C/c3ccc(-c4ccc(N(C)C)cc4)s3)cc(CN3CCN(C)CCN(C)CC3)c2O)CC1 [ZY-5-DT, (E)-2,6-bis((4,7-dimethyl-1,4,7-triazonan-1-yl)methyl)-4-(2-(5-(4-(dimethylamino)phenyl)thiophen-2-yl)vinyl)phenol]	1.67 ± 0.19	2.09 ± 0.36	–	–
N#CC(C#N)=C1C=C(/C=C/c2ccc(O)cc2)Oc2ccccc21 [DCM-OH-1]	–	–	–	logD [4]: 1 ± 0.04
CN1CCN(C)CCN(Cc2cc(-c3ccc(/C=C/c4ccc(N(C)C)cc4)s3)ccc2O)CC1 [ZY-12-MT, (E)-2-((4,7-dimethyl-1,4,7-triazonan-1-yl)methyl)-4-(5-(4-(dimethylamino)styryl)thiophen-2-yl)phenol]	4.19 ± 0.87	6.27 ± 1.01	–	effect on cell viability under Cu^2+-Aβ42 toxicity [3]: significantly increase cell viability
COc1cc(OC)cc(-c2ccc(/C=C/c3ccc(O)c(CN4CCN(C)CCN(C)CC4)c3)cc2)c1 [ZY-17-MT, (E)-4-(2-(3′,5′-dimethoxy-[1,1′-biphenyl]-4-yl)vinyl)-2-((4,7-dimethyl-1,4,7-triazonan-1-yl)methyl)phenol]	0.94 ± 0.07	2.08 ± 0.34	–	–
CCN(CC)c1ccc(/C=C/C2=[O+][B-](F)(F)OC(/C=C/c3ccc(N(CC)CC)nc3)=C2CCCOc2c(C)cccc2C)cn1 [CRANAD-102]	–	–	–	Kd ([5]; reported values): 0.0075 µM
CCOc1cccc(C=Cc2cc(C)c3n2[B-](F)(F)[N+]2=C(CCC(=O)OCC(Cl)(Cl)Cl)C=CC2=C3)c1O [BD-Oligo]	–	–	–	Kd ([5]; reported oligomer-selective probes): 0.4 µM
CN1CCN(C)CCN(Cc2cc(-c3ccc(/C=C/c4ccc(N(C)C)cc4)s3)cc(CN3CCN(C)CCN(C)CC3)c2O)CC1 [ZY-12-DT, (E)-2,6-bis((4,7-dimethyl-1,4,7-triazonan-1-yl)methyl)-4-(5-(4-(dimethylamino)styryl)thiophen-2-yl)phenol]	1.38 ± 0.24	0.67 ± 0.15	higher binding affinity to oligomers over fibrils	relative cytotoxicity [6]: higher citotoxicity than others
COc1cc(OC)cc(-c2ccc(/C=C/c3cc(CN4CCN(C)CCN(C)CC4)c(O)c(OC)c3)cc2)c1 [ZY-17-OMe, (E)-4-(2-(3′,5′-dimethoxy-[1,1′-biphenyl]-4-yl)vinyl)-2-((4,7-dimethyl-1,4,7-triazonan-1-yl)methyl)-6-methoxyphenol]	0.18 ± 0.02	0.12	higher binding affinity to oligomers over fibrils	relative cytotoxicity [6]: the highest toxicity
COc1cc(-c2ccc(/C=C/c3ccc(N(C)C)cc3)s2)cc(CN2CCN(C)CCN(C)CC2)c1O [ZY-12-OMe, (E)-2-((4,7-dimethyl-1,4,7-triazonan-1-yl)methyl)-4-(5-(4-(dimethylamino)styryl)thiophen-2-yl)-6-methoxyphenol]	0.39 ± 0.04	0.32 ± 0.04	higher binding affinity to oligomers over fibrils	cell viability ([6]; at 5 μM): more than 75%; cell viability ([6]; at 10 μM): less than 50%; relative cytotoxicity [6]: higher citotoxicity than others
CN1CCN(C)CCN(Cc2cc(/C=C/c3ccc(-c4ccc(N(C)C)cc4)s3)ccc2O)CC1 [ZY-5-MT, (E)-2-((4,7-dimethyl-1,4,7-triazonan-1-yl)methyl)-4-(2-(5-(4-(dimethylamino)phenyl)thiophen-2-yl)vinyl)phenol]	1.82 ± 0.13	0.46 ± 0.06	higher binding affinity to oligomers over fibrils	selectivity to Aβ oligomers over Aβ fibrils ([2]; ratio of Kd values): 3.9 times
COc1cc(OC)cc(-c2ccc(/C=C/c3cc(CN4CCN(C)CCN(C)CC4)c(O)c(CN4CCN(C)CCN(C)CC4)c3)cc2)c1 [ZY-17-DT, (E)-4-(2-(3′,5′-dimethoxy-[1,1′-biphenyl]-4-yl)vinyl)-2,6-bis((4,7-dimethyl-1,4,7-triazonan-1-yl)methyl)phenol]	2.25 ± 0.46	1.03 ± 0.2	higher binding affinity to oligomers over fibrils	relative cytotoxicity [6]: higher citotoxicity than others
CN1CCN(C)CCN(Cc2cc(/C=C/C3=CC(=C(C#N)C#N)c4ccccc4O3)ccc2O)CC1 [DCM-OH-1-MT, (E)-2-(2-(3-((4,7-dimethyl-1,4,7-triazonan-1-yl)methyl)-4-hydroxystyryl)-4H-chromen-4-ylidene)malononitrile]	–	–	–	Kd ([1]; Table 3, DCM compounds): 0.58 ± 0.07 µM; Kd ([2]; Table 3, DCM compounds): 0.67 ± 0.19 µM; logD [4]: 1.65 ± 0.06
